The text below walks through data of USRE31617E, “Optionally substituted 1,2,3,5-tetrahydroimidezo(2,1-b)-quinazolin-2-ones and 6(H)-1,2,3,4-tetrahydropyimido(2,1-b)quinazolin-2-ones” (Bristol-Myers Company, priority 1982, dated 1984).

In series [1] the test system is rats, dogs, cats and rabbits. The settings on record: prior art; cited from earlier work.
For the next series, the system named is skin. In words: Handling hazard observed in synthesis. The conditions noted are these: observation in synthesis.
The test system of series [2] is genetically hypertensive rats. As to the kind of experiment: Blood pressure change after oral dosing (intra-arterial cannula and transducer). The class given is in vivo, rat. The conditions noted are these: P.O. 50 mg./kg.; for change in vivo at 50 mg/kg: Rattus norvegicus, po, + increase, - decrease in b.p., tested as hydrochloride salts. The method, then:
The blood pressure of unanesthetized rats and dogs was measured directly by means of a transducer attached to an intra-arterial cannula and in anesthetized dogs by a mercury manometer attached to a carotid cannula.
The compounds of the instant invention were tested as the hydrochloride salts by the above method in genetically hypertensive rats in doses of 50 mg./kg. orally.

As for `c1ccc2c(c1)CN1CCNC1=N2`, in series [1], the antihypertensive activity result is “potent antihypertensive activity”.

Regarding `Cc1cccc([N+](=O)[O-])c1CCl` [2-Methyl-6-nitrobenzyl chloride], the “lachrymator and skin irritant” value in the series with skin is “strong lachrymator and skin irritant”.

Take `O=C1CCN2Cc3cc(Br)ccc3N=C2N1` [Compound 21, 8-Bromo-6-[H]-1,2,3,4-tetrahydropyrimido[2,1-b]quinazolin-2-one]: the “Blood Pressure % Change Rats column: toxicity in words” value in series [2] is “Toxic”.

As to `COc1cccc2c1CN1CCC(=O)NC1=N2` [Compound 25], the change in vivo at 50 mg/kg in series [2] worked out at 5 ± 3%.

As to `COc1ccc2c(c1)CN1CCC(=O)NC1=N2` [Compound 26], the change in vivo at 50 mg/kg in series [2] turned out to be 19 ± 6%.

For `COc1cccc2c1N=C1NC(=O)CCN1C2` [Compound 27], in series [2], the change in vivo at 50 mg/kg is -1 ± 4%.

As to `COc1cc2c(cc1OC)N=C1NC(=O)CCN1C2` [Compound 28], the change in vivo at 50 mg/kg in series [2] is -7 ± 2%.
